# Experimental data: PubChem BioAssay AID1645864 (Buhrlage Lab, Dana-Farber Cancer Institute and Novartis …, 2021)
# Activity calls are given as the source filed them.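 The calls were made as follows: active = maximal inhibition of USP17 at or above 30% in the confirmation dose-response, a value not among the printed readouts; inactive = the rest.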
# Molecular target: Ubiquitin carboxyl-terminal hydrolase 17-like protein 5 (Homo sapiens) (UniProt A8MUK1)
# Assay: ubiquitin-specific protease 17 DUB inhibitors, concentration-effect assay, cell-free, verification of initial screening actives (AID 1645864)
# Details: purified USP17, ubiquitin-rhodamine cleavage fluorescence, 3 h
# Sequence of Ubiquitin carboxyl-terminal hydrolase 17-like protein 5 (Homo sapiens) (A8MUK1 whole entry, looked up): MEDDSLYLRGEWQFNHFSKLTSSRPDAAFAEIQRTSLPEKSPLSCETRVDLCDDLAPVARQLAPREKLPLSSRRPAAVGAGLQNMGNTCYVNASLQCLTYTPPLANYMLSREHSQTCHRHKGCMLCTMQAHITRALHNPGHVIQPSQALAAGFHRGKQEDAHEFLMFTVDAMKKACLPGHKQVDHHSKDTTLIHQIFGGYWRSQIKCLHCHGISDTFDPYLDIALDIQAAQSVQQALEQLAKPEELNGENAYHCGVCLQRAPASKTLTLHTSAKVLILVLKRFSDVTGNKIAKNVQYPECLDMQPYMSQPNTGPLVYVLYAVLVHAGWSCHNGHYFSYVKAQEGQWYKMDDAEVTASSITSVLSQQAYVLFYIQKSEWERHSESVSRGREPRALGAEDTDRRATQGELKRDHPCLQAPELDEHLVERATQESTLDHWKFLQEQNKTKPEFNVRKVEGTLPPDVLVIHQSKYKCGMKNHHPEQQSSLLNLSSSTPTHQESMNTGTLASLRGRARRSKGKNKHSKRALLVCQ
row,Structure (SMILES),IC50
1,Cc1noc(C)c1S(=O)(=O)Nc1ccc(C(=O)Nc2ccc3c(c2)OCCO3)cc1,> 50 µM (inactive)
2,Cc1ccc2c(c1C)NC(=O)[C@]21[C@@H]2C(=O)N(c3cccc(Cl)c3)C(=O)[C@@H]2[C@@H]2CCCN21,> 50 µM (inactive)
3,Cc1nc(Nc2c3ccccc3nc3ccccc23)sc1C,> 50 µM (inactive)
4,O=C(Nc1nnc2n1CCCS2)c1cccc(Cl)c1,> 50 µM (inactive)
5,CC1=CC(=O)C(C2=C(O)C(=O)C(C)=CC2=O)=C(O)C1=O,3.55 µM
6,Cc1c(C)c2ccc(OCC(=O)NCc3ccncc3)c(C)c2oc1=O,41.8 µM
7,CC(OC(=O)c1ccc2c(c1)OCCO2)C(=O)NCC1CCCCC1 (configuration not stated),30.1 µM
8,Cc1nc(Nc2ncc(C)s2)cc(C2CN(C(=O)Cc3ccccc3)CCO2)n1 (configuration not stated),> 50 µM (inactive)
9,Cc1cc(C(=O)Nc2ccc3c(c2)OCCO3)no1,> 50 µM (inactive)
10,CN1CCN(C(=O)c2cc(-c3ccn(-c4ccccc4)n3)n3ccccc23)CC1,> 50 µM (inactive)
11,O=c1c2cnc(N3CCOCC3)nc2ccn1CCc1ccccc1,18 µM
12,O=S(=O)(c1ccc(F)cc1)N1CCCC1c1ccnc(Nc2cnccn2)n1 (configuration not stated),> 50 µM (inactive)
13,Cc1cc(O)c(Oc2cc(C)cc(O)c2O)c(O)c1,26.6 µM
14,COc1ccc(C2CC(c3ccc(C)cc3)N(C(=O)C3CC3)c3ncnn32)cc1 (configuration not stated),> 50 µM (inactive)
15,Cc1ccc([N+](=O)[O-])cc1S(=O)(=O)Nc1cc2sc(=O)oc2c2ccccc12,3.44 µM
16,Cc1c(CC(=O)N2CCN(c3ncccn3)CC2)c(=O)oc2cc(O)ccc12,24.7 µM
17,CCc1cc2cc3c(cc2nc1SCC(=O)Nc1cccc(C(C)=O)c1)OCO3,2.29 µM
18,COc1ccc(CCNC(=O)c2noc3c2CCc2sccc2-3)cc1OC,22 µM
19,COc1ccc(NC(=O)CC(=O)c2ccc([N+](=O)[O-])cc2)cc1S(=O)(=O)Nc1ccc(Br)cc1,22 µM
20,CCc1nnc(NC(=O)c2nnn(-c3ccccc3Cl)c2C)s1,> 50 µM (inactive)
21,O=C(NCCCN1CCc2ccccc2C1)c1cc2c(s1)CS(=O)(=O)C2,> 5 µM (inactive)
22,O=C(Nc1ccc2c(c1)OCCO2)C1CCN(C(=O)c2ccccc2)CC1,> 50 µM (inactive)
23,Cc1nc(CN2CCn3c(Cn4cccn4)cnc3C2C)cs1 (configuration not stated),> 50 µM (inactive)
24,NS(=O)(=O)c1ccc(NS(=O)(=O)c2ccc(NC(=O)Nc3ccc(Cl)cc3)cc2)cc1,37.8 µM
25,O=C(NCCc1ccco1)c1ccc(N2CCOc3ccccc32)s1,15.4 µM
26,Cc1ccc(C2c3c(-c4ccccc4O)n[nH]c3C(=O)N2Cc2ccco2)cc1 (configuration not stated),28.1 µM

row,Structure (SMILES),IC50
1,COc1ccc(C(=O)Nc2cc3c4c(c2)C(C)C(=O)N4CCC3)cc1 (configuration not stated),> 50 µM (inactive)
2,O=C(Cc1ccccc1F)N1CCC2(CC1)CC1(CO2)Nc2ccccc2-n2cccc21 (configuration not stated),> 50 µM (inactive)
3,Cc1oc(-c2ccc(C(=O)NCC3COCCO3)cc2)nc1CN1CCc2ccccc21 (configuration not stated),> 50 µM (inactive)
4,CN1CCN(c2ccc3nc(-c4ccccc4)c(-c4ccccc4)nc3c2)CC1,> 50 µM (inactive)
5,O=S(=O)(c1cccc(F)c1)N1CCN(c2nnnn2-c2ccccc2)CC1,40.3 µM
6,COC(=O)c1cc(C#N)c(NCc2ccccc2)nc1C,13.4 µM
7,Cc1cccc(Cl)c1NC(=O)Nc1ccc(NC(=O)c2ccccc2O)cc1,35.4 µM
8,Cc1cccc(NC(=O)Cn2c(-c3cnccn3)nc(C)c(C)c2=O)c1C,> 50 µM (inactive)
9,Cc1ccc(-n2c(-c3ccccc3)cn3c4c(=O)[nH]c(=O)n(C)c4nc23)cc1C,0.289 µM
10,CC1CCc2c(sc3ncnc(OCc4cccc([N+](=O)[O-])c4)c23)C1 (configuration not stated),> 50 µM (inactive)
11,Cc1nc(C(=O)N[C@@H](C)C(=O)NCc2ccc3c(c2)OCO3)cc2c1[nH]c1ccccc12,27.2 µM
12,COc1cc(OC)cc(C(=O)Nc2cnc(-c3ccccc3)nc2)c1,> 50 µM (inactive)
13,COc1c(O)c(O)c2c(=O)cc(-c3ccc(O)cc3)oc2c1OC,38.5 µM
14,O=C(CC1C(=O)Nc2nc(-c3ccccc3)nn21)Nc1cccc2ccccc12 (configuration not stated),12.2 µM
15,Cc1cccc(S(=O)(=O)N2CCc3nc4ccccc4n3CC2)c1,24.4 µM
16,Cc1cc(NCC2CC2)n2nc(Nc3cc(Cl)ccc3C)nc2n1,30.4 µM
17,CCCCC/C=C/C=C/C(=O)OC1C(O)CC(c2ccc3c(c2O)C(=O)c2c(O)cc4cc(C)cc(O)c4c2C3=O)OC1C (configuration not stated),0.394 µM
18,Cc1nc(N2CCCC2)ncc1-c1cc(=O)[nH]c(N2CCc3ccccc3C2)n1,21.6 µM
19,Cc1ccc(-n2nnc(C(=O)NC3CCCCC3)c2N)cc1,22.1 µM
20,Nc1nc(-c2ccc[nH]2)cs1,> 50 µM (inactive)
21,CCS(=O)(=O)N1CCc2cc(C(=O)Nc3ccc4c(c3)OCCO4)ccc21,> 50 µM (inactive)
22,Cc1nc(-c2noc3ccc(C(=O)Nc4cccnc4)cc23)cs1,42.5 µM
23,CCc1nc(N2CCCC2=O)sc1C(=O)Nc1cccc(C(C)=O)c1,> 50 µM (inactive)
24,O=C(CSc1ncnc2c1sc1cccc(F)c12)N1CCCCCC1,> 50 µM (inactive)
25,COc1ccccc1NC(=O)c1cc(-c2ccccn2)nc2ccccc12,9.53 µM
26,O=C1CC(C(=O)Nc2ccccc2Cl)n2nc(-c3ccccc3)cc2N1 (configuration not stated),28.7 µM

# Results, then the compound that gave them:
row,IC50,Structure (SMILES)
1,> 50 µM (inactive),Cc1ccc(OC(=O)c2cn(-c3ccccc3)nc2-c2cccnc2)cc1
2,> 50 µM (inactive),Fc1ccc(CSc2nnc(-c3ccccn3)n2Cc2ccco2)cc1
3,> 50 µM (inactive),COc1ccc(C(=O)Nc2ccc3c(c2)C(=O)N(C)c2ccccc2O3)cc1
4,21.5 µM,O=C(CCCn1c(=O)[nH]c2cc(Cl)ccc2c1=O)N1CCc2ccccc2C1
5,> 50 µM (inactive),Cc1noc(NS(=O)(=O)c2ccc(NC(=O)CSc3ccc4ccccc4c3)cc2)c1C
6,21.2 µM,Oc1cc(OCc2cccc(C(F)(F)F)c2)ccc1-c1ccn[nH]1
7,> 50 µM (inactive),FC(F)(F)c1ccccc1CCN1CCc2nc3ncc(Cl)cc3cc2C1
8,> 50 µM (inactive),Cc1ccc(N2CC(c3nc4ccccc4n3CCCCOc3ccccc3)CC2=O)cc1 (configuration not stated)
9,46.1 µM,CC1=C(c2ccc(C)c(C)c2)S(=O)(=O)NC1=NCC(=O)NCCc1ccc(C)cc1
10,> 50 µM (inactive),Cc1cccc(NC(=O)c2ccn(COc3ccc(F)cc3F)n2)c1C
11,1.87 µM,O=C(COc1ccccc1-c1nnc(-c2ccccc2)o1)Nc1ccc(F)cc1F
12,33.5 µM,COc1ccc(NC(=O)COc2ccc3ccc(=O)oc3c2)cc1
13,> 50 µM (inactive),Clc1ccc(C[n+]2cc(-c3ccc(Cl)cc3)n3c2CCC3)cc1
14,> 50 µM (inactive),O=c1ccc(-c2noc(Cc3cccc(Cl)c3)n2)c[nH]1
15,> 50 µM (inactive),O=C(OCc1ccc(F)cc1)c1ccc2ccccc2n1
16,> 50 µM (inactive),COc1ccccc1-c1ccc(SCC(=O)Nc2ccc3c(c2)OCCO3)nn1
17,33.7 µM,O=C(Cn1nnc(-c2ccc(F)cc2)n1)NCCc1ccccc1
18,32.7 µM,Cn1cc(NC(=O)Nc2cccc3ccccc23)c2ccccc21
19,10.7 µM,CCc1ccc(Nc2cc(C(=O)NCCCOC(C)C)c3ccccc3n2)cc1
20,> 50 µM (inactive),CS(=O)(=O)N1CCc2cc(C(=O)Nc3ccc(Cc4ccncc4)cc3)ccc21
21,> 50 µM (inactive),Cc1ccccc1NC(=O)c1ccn(COc2ccc(Cl)cc2)n1
22,22.3 µM,COc1ccc(C)cc1NC(=O)CSc1nc(C)nc2c1oc1ccccc12
23,43.4 µM,COc1cccc(/C=C/C(=O)Nc2ccc(C)c(Cl)c2)c1
24,> 50 µM (inactive),Fc1ccccc1Cc1nc(-c2ccc3nncn3c2)no1
25,> 50 µM (inactive),Cc1ccc(Cl)cc1NC(=O)COC(=O)c1ccc2ccccc2n1

row,IC50,Structure (SMILES)
1,33.8 µM,Cc1nc2c3ccccc3nc(NCc3ccc4c(c3)OCO4)n2n1
2,> 50 µM (inactive),COCCNC(=O)c1ccnn1-c1ccc2ccc(-c3cccnc3)cn12
3,33.8 µM,N#Cc1c(-c2ccccc2)ccn(Cc2cccc(C(F)(F)F)c2)c1=O
4,> 50 µM (inactive),CCn1c(Cn2cccn2)nc2cc(NC(=O)c3ccc(F)cc3)ccc21
5,> 50 µM (inactive),O=C(NCc1ccc2c(c1)OCO2)c1nc(-c2ccccc2)n(-c2ccccc2)n1
6,> 50 µM (inactive),O=C(c1nnn(Cc2ccc(Cl)cc2)c1-n1cccc1)N1CCCC1
7,> 50 µM (inactive),Cc1c(Cl)cccc1NC(=O)Cn1c(=O)c2ccccc2n2nncc12
8,> 50 µM (inactive),Cc1cc(C(=O)Nc2cc(C)n(Cc3ccc(Cl)cc3)n2)no1
9,28.5 µM,COCCCn1c(C(=O)NCCc2ccccc2)cc2c(=O)n3cccc(C)c3nc21
10,> 50 µM (inactive),Cc1ccc(C)c(-n2c(N)c(C(=O)NCCc3ccccc3)c3nc4ccccc4nc32)c1
11,> 50 µM (inactive),O=c1sc2ccccc2c(=O)n1Cc1cccc(C(F)(F)F)c1
12,12.5 µM,O=c1c(Nc2cccc(F)c2)nc2ccncc2n1Cc1ccccc1
13,6.56 µM,Fc1cc(F)c2[nH]cc(-c3nnnn3-c3ccc4ccccc4c3)c2c1
14,> 50 µM (inactive),CCOC(=O)c1ccc(NC(=O)COc2cccc3c2CCN(CC)C3=O)cc1
15,2.44 µM,CCOc1ccc2cc3c(nc2c1)OC(=O)N(Cc1ccc(C)o1)C3
16,29.5 µM,N#C/C(=C\c1ccc(OCc2cccc(C(=O)O)c2)cc1)c1ccc(F)cc1
17,36.2 µM,CS(=O)(=O)c1ccc(NC(=O)C2CN(c3nc4c(F)cccc4s3)C2)cc1
18,2.34 µM,CCn1cc(-c2nc(-c3ccccc3)no2)c(=O)c2cc(F)ccc21
19,> 50 µM (inactive),O=c1[nH]c(C2CCN(S(=O)(=O)c3ccc(S(=O)(=O)NC4CCCC4)cc3)CC2)nc2c1nnn2Cc1cccc(Cl)c1
20,1.78 µM,CCCn1c(=O)c(-c2ccc(C(=O)NCc3ccc(OC)cc3)cc2)nc2cccnc21
21,45 µM,CCC(C)NC(=O)Cn1c(=O)n(-c2ccccc2)c(=O)c2ccc(C(=O)NCc3ccco3)cc21 (configuration not stated)
22,> 50 µM (inactive),COc1ccc(CCNC(=O)c2ccc3ccccc3c2)cc1OC
23,> 50 µM (inactive),CCCNc1cc(-c2ccccc2)nc2nc(-c3cccnc3)nn12
24,> 50 µM (inactive),CC(C)(C)C(=O)Nc1ccc(SCc2nnc(-c3ccccc3)o2)cc1
25,43.4 µM,CCn1c(COc2cccc(C(F)(F)F)c2)nnc1SCc1ccc(Cl)cc1
